From the NIST ThermoML archive (doi:10.1016/j.jct.2016.10.016)
± gives the expanded uncertainty stated by the source.

Assay: mn = molality of the nth substance listed, in mol/kg
Settings: 101.3 kPa, Liquid

## COC(=O)[C@H](C)N.Cl [methyl L-alaninate hydrochloride] + O
278.15 K, Frequency=2 MHz, Linear variable-path acoustic interferometer, m1 = 0.0501
  speed of sound: 1432 ± 2 m/s
278.15 K, Frequency=2 MHz, Linear variable-path acoustic interferometer, m1 = 0.0614
  speed of sound: 1432.9 ± 2 m/s
278.15 K, Frequency=2 MHz, Linear variable-path acoustic interferometer, m1 = 0.0701
  speed of sound: 1433.8 ± 2 m/s
278.15 K, Frequency=2 MHz, Linear variable-path acoustic interferometer, m1 = 0.082
  speed of sound: 1435.4 ± 2 m/s
278.15 K, Frequency=2 MHz, Linear variable-path acoustic interferometer, m1 = 0.091
  speed of sound: 1437.2 ± 2 m/s
278.15 K, Frequency=2 MHz, Linear variable-path acoustic interferometer, m1 = 0.1004
  speed of sound: 1437.6 ± 2 m/s
278.15 K, Frequency=2 MHz, Linear variable-path acoustic interferometer, m1 = 0.1099
  speed of sound: 1438.9 ± 2 m/s
278.15 K, Frequency=2 MHz, Linear variable-path acoustic interferometer, m1 = 0.1219
  speed of sound: 1440 ± 2 m/s
278.15 K, Frequency=2 MHz, Linear variable-path acoustic interferometer, m1 = 0.1296
  speed of sound: 1441.4 ± 2 m/s
278.15 K, Frequency=2 MHz, Linear variable-path acoustic interferometer, m1 = 0.1411
  speed of sound: 1442.6 ± 2 m/s
278.15 K, Frequency=2 MHz, Linear variable-path acoustic interferometer, m1 = 0.1515
  speed of sound: 1443.6 ± 2 m/s
278.15 K, Frequency=2 MHz, Linear variable-path acoustic interferometer, m1 = 0.1618
  speed of sound: 1444.4 ± 2 m/s
278.15 K, Pycnometric method, m1 = 0.0501
  mass density: 1001.79 ± 0.28 kg/m3
278.15 K, Pycnometric method, m1 = 0.0614
  mass density: 1002.2 ± 0.28 kg/m3
278.15 K, Pycnometric method, m1 = 0.0701
  mass density: 1002.52 ± 0.28 kg/m3
278.15 K, Pycnometric method, m1 = 0.082
  mass density: 1002.95 ± 0.28 kg/m3
278.15 K, Pycnometric method, m1 = 0.091
  mass density: 1003.28 ± 0.29 kg/m3
278.15 K, Pycnometric method, m1 = 0.1004
  mass density: 1003.62 ± 0.29 kg/m3
278.15 K, Pycnometric method, m1 = 0.1099
  mass density: 1003.97 ± 0.29 kg/m3
278.15 K, Pycnometric method, m1 = 0.1219
  mass density: 1004.4 ± 0.29 kg/m3
278.15 K, Pycnometric method, m1 = 0.1296
  mass density: 1004.68 ± 0.3 kg/m3
278.15 K, Pycnometric method, m1 = 0.1411
  mass density: 1005.1 ± 0.3 kg/m3
278.15 K, Pycnometric method, m1 = 0.1515
  mass density: 1005.48 ± 0.3 kg/m3
278.15 K, Pycnometric method, m1 = 0.1618
  mass density: 1005.86 ± 0.3 kg/m3
288.15 K, Frequency=3 MHz, Sing-around technique in a fixed-path interferometer, m1 = 0.0502
  speed of sound: 1470.7 ± 1.2 m/s
288.15 K, Frequency=3 MHz, Sing-around technique in a fixed-path interferometer, m1 = 0.0601
  speed of sound: 1471.8 ± 1.2 m/s
288.15 K, Frequency=3 MHz, Sing-around technique in a fixed-path interferometer, m1 = 0.07
  speed of sound: 1473.1 ± 1.2 m/s
288.15 K, Frequency=3 MHz, Sing-around technique in a fixed-path interferometer, m1 = 0.0801
  speed of sound: 1474.1 ± 1.2 m/s
288.15 K, Frequency=3 MHz, Sing-around technique in a fixed-path interferometer, m1 = 0.0901
  speed of sound: 1475.2 ± 1.2 m/s
288.15 K, Frequency=3 MHz, Sing-around technique in a fixed-path interferometer, m1 = 0.1003
  speed of sound: 1476.3 ± 1.2 m/s
288.15 K, Frequency=3 MHz, Sing-around technique in a fixed-path interferometer, m1 = 0.1101
  speed of sound: 1477.1 ± 1.2 m/s
288.15 K, Frequency=3 MHz, Sing-around technique in a fixed-path interferometer, m1 = 0.1202
  speed of sound: 1477.8 ± 1.2 m/s
288.15 K, Frequency=3 MHz, Sing-around technique in a fixed-path interferometer, m1 = 0.13
  speed of sound: 1478.9 ± 1.3 m/s
288.15 K, Frequency=3 MHz, Sing-around technique in a fixed-path interferometer, m1 = 0.1401
  speed of sound: 1480 ± 1.3 m/s
288.15 K, Frequency=3 MHz, Sing-around technique in a fixed-path interferometer, m1 = 0.1504
  speed of sound: 1481.1 ± 1.3 m/s
288.15 K, Frequency=3 MHz, Sing-around technique in a fixed-path interferometer, m1 = 0.1603
  speed of sound: 1482.2 ± 1.3 m/s
288.15 K, Vibrating tube method, m1 = 0.0502
  mass density: 1000.8 ± 0.11 kg/m3
288.15 K, Vibrating tube method, m1 = 0.0601
  mass density: 1001.13 ± 0.11 kg/m3
288.15 K, Vibrating tube method, m1 = 0.07
  mass density: 1001.47 ± 0.12 kg/m3
288.15 K, Vibrating tube method, m1 = 0.0801
  mass density: 1001.8 ± 0.12 kg/m3
288.15 K, Vibrating tube method, m1 = 0.0901
  mass density: 1002.14 ± 0.12 kg/m3
288.15 K, Vibrating tube method, m1 = 0.1003
  mass density: 1002.49 ± 0.13 kg/m3
288.15 K, Vibrating tube method, m1 = 0.1101
  mass density: 1002.82 ± 0.13 kg/m3
288.15 K, Vibrating tube method, m1 = 0.1202
  mass density: 1003.16 ± 0.13 kg/m3
288.15 K, Vibrating tube method, m1 = 0.13
  mass density: 1003.49 ± 0.14 kg/m3
288.15 K, Vibrating tube method, m1 = 0.1401
  mass density: 1003.83 ± 0.14 kg/m3
288.15 K, Vibrating tube method, m1 = 0.1504
  mass density: 1004.18 ± 0.15 kg/m3
288.15 K, Vibrating tube method, m1 = 0.1603
  mass density: 1004.51 ± 0.15 kg/m3
298.15 K, Frequency=3 MHz, Sing-around technique in a fixed-path interferometer, m1 = 0.0486
  speed of sound: 1500.6 ± 1.2 m/s
298.15 K, Frequency=3 MHz, Sing-around technique in a fixed-path interferometer, m1 = 0.0601
  speed of sound: 1502.2 ± 1.2 m/s
298.15 K, Frequency=3 MHz, Sing-around technique in a fixed-path interferometer, m1 = 0.0697
  speed of sound: 1503 ± 1.2 m/s
298.15 K, Frequency=3 MHz, Sing-around technique in a fixed-path interferometer, m1 = 0.0819
  speed of sound: 1503.6 ± 1.2 m/s
298.15 K, Frequency=3 MHz, Sing-around technique in a fixed-path interferometer, m1 = 0.0899
  speed of sound: 1504.7 ± 1.2 m/s
298.15 K, Frequency=3 MHz, Sing-around technique in a fixed-path interferometer, m1 = 0.0963
  speed of sound: 1505.2 ± 1.2 m/s
298.15 K, Frequency=3 MHz, Sing-around technique in a fixed-path interferometer, m1 = 0.11
  speed of sound: 1506.4 ± 1.2 m/s
298.15 K, Frequency=3 MHz, Sing-around technique in a fixed-path interferometer, m1 = 0.1184
  speed of sound: 1507.1 ± 1.2 m/s
298.15 K, Frequency=3 MHz, Sing-around technique in a fixed-path interferometer, m1 = 0.1302
  speed of sound: 1508 ± 1.2 m/s
298.15 K, Frequency=3 MHz, Sing-around technique in a fixed-path interferometer, m1 = 0.1401
  speed of sound: 1508.9 ± 1.3 m/s
298.15 K, Frequency=3 MHz, Sing-around technique in a fixed-path interferometer, m1 = 0.1507
  speed of sound: 1509.8 ± 1.2 m/s
298.15 K, Frequency=3 MHz, Sing-around technique in a fixed-path interferometer, m1 = 0.1601
  speed of sound: 1510.3 ± 1.2 m/s
298.15 K, Vibrating tube method, m1 = 0.0486
  mass density: 998.75 ± 0.11 kg/m3
298.15 K, Vibrating tube method, m1 = 0.0601
  mass density: 999.01 ± 0.11 kg/m3
298.15 K, Vibrating tube method, m1 = 0.0697
  mass density: 999.32 ± 0.11 kg/m3
298.15 K, Vibrating tube method, m1 = 0.0819
  mass density: 999.68 ± 0.12 kg/m3
298.15 K, Vibrating tube method, m1 = 0.0899
  mass density: 999.97 ± 0.12 kg/m3
298.15 K, Vibrating tube method, m1 = 0.0963
  mass density: 1000.19 ± 0.12 kg/m3
298.15 K, Vibrating tube method, m1 = 0.11
  mass density: 1000.61 ± 0.13 kg/m3
298.15 K, Vibrating tube method, m1 = 0.1184
  mass density: 1000.89 ± 0.13 kg/m3
298.15 K, Vibrating tube method, m1 = 0.1302
  mass density: 1001.2 ± 0.13 kg/m3
298.15 K, Vibrating tube method, m1 = 0.1401
  mass density: 1001.54 ± 0.15 kg/m3
298.15 K, Vibrating tube method, m1 = 0.1507
  mass density: 1001.93 ± 0.14 kg/m3
298.15 K, Vibrating tube method, m1 = 0.1601
  mass density: 1002.17 ± 0.13 kg/m3

## O [water] + COC(=O)[C@H](C)N.Cl
278.15 K, Frequency=2 MHz, Linear variable-path acoustic interferometer, m2 = 0
  speed of sound: 1426.2 ± 2 m/s
278.15 K, Pycnometric method, m2 = 0
  mass density: 999.96 ± 0.28 kg/m3
